Where a name gives a salt, the structure may show the parent alone.
Molecular target: factor Xa (Homo sapiens, UniProt P00742)
Assay: Factor Xa assay (Test 1a), chromogenic
Type: biochemical
Design: purchased Enzyme Research Laboratories, Inc; South Bend, Ind
Settings: in vitro factor Xa assay Test 1a; human factor Xa 0.5 nM, substrate S-2765 140 μM, 25° C.; Ki from IC50 corrected for substrate competition
Text: The ability of a compound of formula (I) to inhibit factor Xa, thrombin, plasmin, elastase, and trypsin may be assessed by determining the concentration of compound of formula (I) that inhibits enzyme activity by 50% (IC50). Purified enzymes are used in chromogenic assays. To determine the inhibition constant, the IC50 value is corrected for competition with substrate using the formula:
Ki=IC50×(1/{1+((substrate concentration)/substrate Km)})
where Km is the Michaelis-Menten constant. Y. -C. Chen and W. H. Prusoff, Biochem. Pharmacol. 22: […] (1973), which is incorporated herein by reference.
TBS-PEG buffer (50 mM Tris-Cl, pH 7.8, 200 mM NaCl, 0.05% (w/v) PEG-8000, 0.02% (w/v) NaN3) is used for this assay. The IC50 is determined by combining in appropriate wells of a Costar half-area microtiter plate 25 μl human factor Xa (Enzyme Research Laboratories, Inc.; South Bend, Ind.) in TBS-PEG; 40 μl 10% (v/v) DMSO in TBS-PEG (uninhibited control) or various concentrations of the compound to be tested diluted in 10% (v/v) DMSO in TBS-PEG; and substrate S-2765 (N-benzyloxycarbonyl-D-Arg-Gly-L-Arg-p-nitroanilide; Kabi Pharmacia, Inc.; Franklin Ohio) in TBS-PEG.
The assays are performed by pre-incubating the compound of formula (I) plus enzyme for 10 min, then the assay is initiated by adding substrate to obtain a final volume of 100 μl. The initial velocity of chromogenic substrate hydrolysis is measured by the change in absorbance at 405 nm using a Bio-tek Instruments kinetic plate reader (Ceres UV900HDi) at 25° C. during the linear portion of the time course (usually 1.5 min after addition of substrate). The concentration of inhibitor that causes a 50% decrease in the rate of substrate hydrolysis is predicted by linear regression after plotting the relative rates of hydrolysis (compared to the uninhibited control) versus the log of the compound of formula (I) concentration. The enzyme concentration is 0.5 nM and substrate concentration is 140 μM.

Chain of factor Xa (P00742 235-488 limits assumed): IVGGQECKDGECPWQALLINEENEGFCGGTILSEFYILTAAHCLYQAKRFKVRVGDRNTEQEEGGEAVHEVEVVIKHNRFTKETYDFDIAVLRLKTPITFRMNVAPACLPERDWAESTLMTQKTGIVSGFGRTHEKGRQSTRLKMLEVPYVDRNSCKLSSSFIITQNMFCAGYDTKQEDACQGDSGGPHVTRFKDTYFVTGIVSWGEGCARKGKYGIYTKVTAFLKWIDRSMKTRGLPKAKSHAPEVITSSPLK
Chain of factor Xa (P00742 41-179 limits assumed): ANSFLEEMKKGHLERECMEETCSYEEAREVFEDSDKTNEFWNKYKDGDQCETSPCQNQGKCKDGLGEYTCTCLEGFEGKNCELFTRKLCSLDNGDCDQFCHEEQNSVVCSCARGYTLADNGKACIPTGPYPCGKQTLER

Ki [nM] | SMILES
13 | N=C(N)NCCC[C@H](NC(=O)[C@@H](NC(=O)C(Cc1ccc(C(=N)N)cc1)c1ccccc1)C1CCCCC1)C(N)=O (mixture of isomers) [Example 135, 2-(S)-{2-(S)-[3-(4-Carbamimidoyl-phenyl)-2-(R,S)-phenyl-propionylamino]-2-cyclohexyl-acetylamino}-5-guanidino-pentanoic acid amide hydrochloric acid salt]
55 | N=C(N)c1ccc(CNC(=O)[C@@H](NC(=O)C(Cc2ccc(CN)cc2)C2CCCCC2)C2CCCCC2)cc1 (mixture of isomers) [Example 138, 3-(4-Aminomethyl-phenyl)-N-[(S)-(4-carbamimidoyl-benzyl-carbamoyl)-cyclohexyl-methyl]-2-(R,S)-cyclohexyl-propionamide acetic acid salt]
3 | Cc1ccccc1C(Cc1ccc(C(=N)N)cc1)C(=O)N[C@H](C(=O)N[C@@H](CCCNC(=N)N)C(N)=O)C1CCCCC1 (mixture of isomers) [Example 140, 2-(S)-{2-(S)-[3-(4-Carbamimidoyl-phenyl)-2-(R,S)-o-tolyl-propionylamino]-2-cyclohexyl-acetylamino}-5-guanidino-pentanoic acid amide hydrochloric acid salt]
100 | Cc1ccc(C(Cc2ccc(C(=N)N)cc2)C(=O)N[C@H](C(=O)N[C@@H](CCCNC(=N)N)C(N)=O)C2CCCCC2)cc1 (mixture of isomers) [Example 141, 2-(S)-{2-(S)-[3-(4-Carbamimidoyl-phenyl)-2-(R,S)-p-tolyl-propionylamino]-2-cyclohexyl-acetylamino}-5-guanidino-pentanoic acid amide hydrochloric acid salt]
19 | N=C(N)c1ccc(CNC(=O)[C@@H](NC(=O)C(Cc2ccc(C(=N)N)cc2)c2cccc(Cl)c2)C2CCCCC2)cc1 (mixture of isomers) [Example 157, N-[(S)-(4-Carbamimidoyl-benzylcarbamoyl)-cyclohexyl-methyl]-3-(4-carbamimidoyl-phenyl)-2-(R,S)-(3-chloro-phenyl)-propionamide hydrochloric acid salt]
13 | CC(C)OC(=O)[C@H](CCCNC(=N)N)NC(=O)[C@@H](NC(=O)C(Cc1ccc(C(=N)N)cc1)C1CCCCC1)C1CCCCC1 (mixture of isomers) [Example 181, 2-(S)-{2-[3-(4-Carbamimidoyl-phenyl)-2-(R,S)-cyclohexyl-propionylamino]-2-(S)-cyclohexyl-acetylamino}-5-guanidino-pentanoic acid isopropyl ester hydrochloric acid salt]
19 | N=C(N)NCCC[C@H](NC(=O)[C@@H](NC(=O)C(Cc1ccc(C(=N)N)cc1)C1CCCCC1)C1CCCCC1)C(=O)NCCc1ccccc1 (mixture of isomers) [Example 184, 2-(S)-{2-(R,S)-[3-(4-Carbamimidoyl-phenyl)-2-cyclohexyl-propionylamino]-2-(S)-cyclohexyl-acetylamino}-5-guanidino-pentanoic acid phenethyl-amide trifluoroacetic acid salt]
3 | N=C(N)c1ccc(CNC(=O)[C@@H](NC(=O)C(Cc2ccc(C(=N)N)cc2)c2ccc3ccccc3c2)C2CCCCC2)cc1 (mixture of isomers) [Example 228, N-[(S)-(4-Carbamimidoyl-benzylcarbamoyl)-cyclohexyl-methyl]-3-(4-carbamimidoyl-phenyl)-2-(R,S)-naphthalen-2-yl-propionamide hydrochloric acid salt]
2 | N=C(N)NCCCC(NC(=O)C(NC(=O)C(Cc1ccc(C(=N)N)cc1)C1CCCCC1)C1CCCCC1)C(N)=O (single isomer, unassigned) [Example 110]
2 | N=C(N)NCCCC(NC(=O)C(NC(=O)C(Cc1ccc(C(=N)N)cc1)C1CCCCC1)C1CCCCC1)C(N)=O (single isomer, unassigned; less polar) [Example 4]
5 | CCOC(=O)C(CCCNC(=N)N)NC(=O)C(NC(=O)C(Cc1ccc(C(=N)N)cc1)C1CCCCC1)C1CCCCC1 (single isomer, unassigned; less polar) [Example 5]
5 | N=C(N)NCCCC(NC(=O)C(NC(=O)C(Cc1ccc(C(=N)N)cc1)C1CCCCC1)C1CCCCC1)C(=O)O (single isomer, unassigned; less polar) [Example 6]
7650 | N=C(N)c1ccc(CC(C(=O)NC(C(=O)NCCN2C(=O)CNC2=O)C2CCCCC2)C2CCCCC2)cc1 (single isomer, unassigned; less polar) [Example 7]
59 | N=C(N)c1ccc(CNC(=O)C(NC(=O)C(Cc2ccc(C(=N)N)cc2)C2CCCCC2)C2CCCCC2)cc1 (single isomer, unassigned; less polar) [Example 111]
6 | N=C(N)c1ccc(CC(C(=O)NC(C(=O)NCC2CCN(C(=N)N)CC2)C2CCCCC2)C2CCCCC2)cc1 (single isomer, unassigned; less polar) [Example 113]
11 | N=C(N)NCCCC(NC(=O)C(NC(=O)C(Cc1ccc(C(=N)N)cc1)c1ccc(Br)cc1)C1CCCCC1)C(N)=O (single isomer, unassigned; less polar) [Example 119]

Ki [nM] | SMILES
1 | N=C(N)NCCCC(NC(=O)C(NC(=O)C(Cc1ccc(C(=N)N)cc1)c1cccc(Cl)c1)C1CCCCC1)C(N)=O (single isomer, unassigned; less polar) [Example 124]
5 | N=C(N)NCCCC(NC(=O)C(NC(=O)C(Cc1ccc(C(=N)N)cc1)c1cccc(F)c1)C1CCCCC1)C(N)=O (single isomer, unassigned; less polar) [Example 131]
1 | N=C(N)NCCCC(NC(=O)C(NC(=O)C(Cc1ccc(C(=N)N)cc1)c1cccc(Br)c1)C1CCCCC1)C(N)=O (single isomer, unassigned; less polar) [Example 133]
4 | CC(=N)N1CCC(CNC(=O)C(NC(=O)C(Cc2ccc(C(=N)N)cc2)C2CCCCC2)C2CCCCC2)CC1 (single isomer, unassigned; less polar) [Example 137]
23 | N=C(N)c1ccc(CNC(=O)C(NC(=O)C(Cc2ccc(C(=N)N)cc2)c2cccc(F)c2)C2CCCCC2)cc1 (single isomer, unassigned; less polar) [Example 149]
4 | N=C(N)c1ccc(CNC(=O)C(NC(=O)C(Cc2ccc(C(=N)N)cc2)c2cccc(Br)c2)C2CCCCC2)cc1 (single isomer, unassigned; less polar) [Example 151]
310 | Cc1ccc(C(Cc2ccc(C(=N)N)cc2)C(=O)NC(C(=O)NCc2ccc(C(=N)N)cc2)C2CCCCC2)cc1 (single isomer, unassigned; less polar) [Example 154]
11 | Cc1cccc(C(Cc2ccc(C(=N)N)cc2)C(=O)NC(C(=O)NCC2CCN(C(=N)N)CC2)C2CCCCC2)c1 (single isomer, unassigned; less polar) [Example 159]
8 | N=C(N)c1ccc(CC(C(=O)NC(C(=O)NCC2CCN(C(=N)N)CC2)C2CCCCC2)c2cccc(F)c2)cc1 (single isomer, unassigned; less polar) [Example 161]
1 | Cc1ccccc1C(Cc1ccc(C(=N)N)cc1)C(=O)NC(C(=O)NCC1CCN(C(=N)N)CC1)C1CCCCC1 (single isomer, unassigned; less polar) [Example 163]
2 | N=C(N)c1ccc(CC(C(=O)NC(C(=O)NCC2CCN(C(=N)N)CC2)C2CCCCC2)c2cccc(Br)c2)cc1 (single isomer, unassigned; less polar) [Example 165]
74 | Cc1cccc(C(Cc2ccc(N)cc2)C(=O)NC(C(=O)NCC2CCN(C(=N)N)CC2)C2CCCCC2)c1 (single isomer, unassigned; less polar) [Example 167]
33 | N=C(N)c1ccc(CC(C(=O)NC(C(=O)NCC2CCN(C(=N)N)CC2)C2CCCCC2)c2ccc3ccccc3c2)cc1 (single isomer, unassigned; less polar) [Example 170]
72 | Cc1ccc(C(Cc2ccc(C(=N)N)cc2)C(=O)NC(C(=O)NCC2CCN(C(=N)N)CC2)C2CCCCC2)cc1 (single isomer, unassigned; less polar) [Example 172]
1 | N=C(N)c1ccc(CC(C(=O)NC(C(=O)NCC2CCN(C(=N)N)CC2)C2CCCCC2)c2cccc(Cl)c2)cc1 (single isomer, unassigned; less polar) [Example 176]
1 | N=C(N)c1ccc(CC(C(=O)NC(C(=O)NCC2CCN(C(=N)N)CC2)C2CCCCC2)c2ccc(Br)cc2)cc1 (single isomer, unassigned; less polar) [Example 177]

SMILES | Ki [nM]
C[n+]1ccc(CNC(=O)[C@@H](NC(=O)C(Cc2ccc(C(=N)N)cc2)c2ccccc2)C2CCCCC2)cc1 (single isomer, unassigned; less polar) [Example 86] | 600

From patent US6759420B1, “Arylalkanoyl derivatives, processes for their preparation, their use and pharmaceutical compositions containing them” (Aventis Pharma Deutschland GmbH, priority 1999, dated 2004)
